Test results taken from PMC8888134, “Characterization of UDP-glycosyltransferase family members reveals how major flavonoid glycoside accumulates in the roots of Scutellaria baicalensis” (BMC Genomics, 2022).

Columns and labels:
Test in all cases: HPLC product quantification, Eadie-Hofstee plot
Type in all cases: biochemical, Scutellaria baicalensis
Conditions in all cases: UDP-Glc as donor; 100 mM Tris-HCl pH 7.0, 37 °C, 10 min; baicalein 0.5-200 μM
[1] = tested on: T1, SbUGT3
T1 construct: full-length ORF (RT-PCR) in pYesdest17, E. coli Rosetta (DE3), Ni-NTA purified
Excerpt: HPLC product quantification, Eadie-Hofstee plot on SbUGT3

[2] = tested on: T2, SbUGT1
T2 construct: full-length ORF (de novo synthesized) in pYesdest17, E. coli Rosetta (DE3), Ni-NTA purified
Excerpt: HPLC product quantification, Eadie-Hofstee plot on SbUGT1

[3] = tested on: T3, SbUGT2
T3 construct: full-length ORF (RT-PCR) in pYesdest17, E. coli Rosetta (DE3), Ni-NTA purified
Excerpt: HPLC product quantification, Eadie-Hofstee plot on SbUGT2

Structure (SMILES): O=c1cc(-c2ccccc2)oc2cc(O)c(O)c(O)c12 [baicalein]
- Km [1]: 2.67 µM
- Km [2]: 3.14 µM
- Km [3]: 101 µM
